Here are results for two molecules from patent US20110166118A1, “NEW TRINEM ANTIBIOTICS AND INHIBITORS OF BETA-LACTAMASES” (LEK PHARMACEUTICALS D.D., priority 2008, published 2011).

Series [1] addresses class A beta-lactamase TEM-1 (Escherichia coli, UniProt P62593). The series can be described thus: IC50 determination with nitrocefin, TEM-1. The series is classed as biochemical, E. coli. Particulars: pre-incubated 30 min at 37° C., phosphate buffer pH 7.0, nitrocefin. The protocol: (§1) The IC50 value represents the concentration of inhibitor required to effect a 50% loss of activity of free enzyme. A standard test for the production of beta-lactamase involves use of the chromogenic cephalosporin, nitrocefin.
(§2) Homogeneously purified class A beta-lactamases TEM-1 and SHV-1 from E. coli and class C enzyme P99 from Enterobacter cloaca were employed in the assay.
(§3) All the enzymes and compounds were dissolved in 50 mM phosphate buffer pH 7.0 and all further dilutions were done with the same buffer solution. Enzyme and compound dilutions were pre-incubated for 30 min at 37° C. and in a final volume of 500 μl. Than 10 μl of 5 mM nitrocefin (reporter substrate) was added to the solution and the absorbance at 482 nm was measured during 2 to 5 minutes. The initial rate was calculated for all the different solutions.

Series [2] concerns the target class A beta-lactamase SHV-1 (Escherichia coli, UniProt P0AD63). The series can be described thus: IC50 determination with nitrocefin, SHV-1. The series is classed as biochemical, E. coli. The protocol: as §1, §2, §3
In series [3] the target is class C beta-lactamase P99 (AmpC) (Enterobacter cloacae, UniProt P05364). The series can be described thus: biochemical. The series is classed as biochemical. As to the method: as §1, §2, §3
For series [4], the system named is K. pneumoniae Lek 22. In words: Broth microdilution MIC, S18. The series is classed as cell-based. Particulars: Klebsiella pneumoniae, LEK22, CAMHB, 35° C., 24 h, duplicate. As to the method: (§4) Stock solutions of the test compounds and Tazocin® were prepared in distilled water according to the CLSI guidelines [Methods for dilution antimicrobial tests for bacteria that grow aerobically. NCCLS document M7-A5; 2000; vol. 19. Clinical and Laboratory Standards Institute, Villanova, Pa.].
(§5) All tested strains and clinical isolates were either purchased from the American Type Culture Collection (ATCC), or from the in-house company culture collection. The tested strains were purely used for the purposes of illustrative example, and are by no means essential for performing the invention.
(§6) The strains were processed according to procedures recommended by ATCC, or procedures that are routinely used. Frozen bacterial stocks were thawed to room temperature, and a few drops were placed on an appropriate blood agar plate. The cultures were subcultured on a fresh Mueller-Hinton agar plate (MHA) the following day, and the subcultures were again incubated overnight.
(§7) Bacterial suspensions with a turbidity equivalent to that of a 0.5 McFarland standard were prepared by suspending a tiny portion of one colony from blood agar plates in 2 mL of sterile saline. […]
(§8) The in vitro activities of the antibiotics were determined by the broth microdilution method as recommended by CLSI guidelines. […]
For orientation: Dilution methods test growth across graded concentrations, often in twofold steps.

The subject of series [5] is ceftazidime-resistant strains. The series can be described thus: Broth microdilution susceptibility assay, overall comparison. The series is classed as cell-based. As to conditions: in words, several ceftazidime-resistant strains tested. As to the method: as §4, §5, §6, §7, §8
The subject of series [6] is C. freundii B318 (CTX-M). The series can be described thus: Broth microdilution MIC, S10. The series is classed as cell-based. Particulars: Citrobacter freundii, CAMHB, 35° C., 24 h, duplicate. The protocol:
as §4, §5, §6, §7, §8

Series [7] relates to C. freundii Lek 17 (AmpC). The series can be described thus: Broth microdilution MIC, S19. The series is classed as cell-based. Particulars: Citrobacter freundii, CAMHB, 35° C., 24 h, duplicate. As to the method:
as §4, §5, §6, §7, §8

For series [8], the system named is K. pneumoniae B401 (TEM-10, TEM-12). In words: Broth microdilution MIC, S17. The series is classed as cell-based. Particulars: Klebsiella pneumoniae, CAMHB, 35° C., 24 h, duplicate. As to the method:
as §4, §5, §6, §7, §8

The subject of series [9] is K. pneumoniae DSA 1461. The series can be described thus: Broth microdilution MIC, S7. The series is classed as cell-based. As to conditions: Klebsiella pneumoniae, DSA1461, CAMHB, 35° C., 24 h, duplicate. As to the method:
as §4, §5, §6, §7, §8

The subject of series [10] is K. pneumoniae B312 (SHV-18). In words: Broth microdilution MIC, S6. The series is classed as cell-based. Particulars: Klebsiella pneumoniae, CAMHB, 35° C., 24 h, duplicate. As to the method: as §4, §5, §6, §7, §8
Series [11] deals with C. freundii B271 (SHV-5). In words: Broth microdilution MIC, S9. The series is classed as cell-based. As to conditions: CAMHB, 35° C., 24 h, duplicate. As to the method: as §4, §5, §6, §7, §8
For series [12], the system named is E. faecalis Lek 112. In words: Broth microdilution MIC, S14. The series is classed as cell-based. As to conditions: Enterococcus faecalis, LEK112, CAMHB, 35° C., 24 h, duplicate. As to the method:
as §4, §5, §6, §7, §8

The test system of series [13] is E. coli B308. The series can be described thus: Broth microdilution MIC, S12. The series is classed as cell-based. As to conditions: Escherichia coli, CAMHB, 35° C., 24 h, duplicate. As to the method: as §4, §5, §6, §7, §8
In series [14] the test system is E. faecium Lek 116. The series can be described thus: Broth microdilution MIC, S15. The series is classed as cell-based. As to conditions: Enterococcus faecium, LEK116, CAMHB, 35° C., 24 h, duplicate. The protocol: as §4, §5, §6, §7, §8
Series [15] deals with E. cloacae Lek 24 (AmpC). In words: Broth microdilution MIC, S1. The series is classed as cell-based. Particulars: CAMHB, 35° C., 24 h, duplicate. The protocol:
as §4, §5, §6, §7, §8

Series [16] relates to K. pneumoniae Lek 8. The series can be described thus: Broth microdilution MIC, S16. As to conditions: Klebsiella pneumoniae, LEK8, CAMHB, 35° C., 24 h, duplicate. The series is classed as cell-based. The protocol:
as §4, §5, §6, §7, §8

For series [17], the system named is E. caerogenes ATCC 29751 (class II). In words: Broth microdilution MIC, S4. The series is classed as cell-based. As to conditions: CAMHB, 35° C., 24 h, duplicate. The protocol: as §4, §5, §6, §7, §8
Series [18] concerns E. faecalis ATCC 29212. The series can be described thus: Broth microdilution MIC, S5. The series is classed as cell-based. Particulars: Enterococcus faecalis, ATCC29212, CAMHB, 35° C., 24 h, duplicate. As to the method: as §4, §5, §6, §7, §8
Series [19] relates to E. cloacae 4013. The series can be described thus: Broth microdilution MIC, S3. The series is classed as cell-based. As to conditions: Enterobacter cloacae, CAMHB, 35° C., 24 h, duplicate. The protocol:
as §4, §5, §6, §7, §8

Series [20] concerns E. coli B309. In words: Broth microdilution MIC, S13. Particulars: Escherichia coli, CAMHB, 35° C., 24 h, duplicate. The series is classed as cell-based. The protocol: as §4, §5, §6, §7, §8
Series [21] relates to K. pneumoniae ATCC 700603 (SHV-18). In words: Broth microdilution MIC, S8. The series is classed as cell-based. As to conditions: Klebsiella pneumoniae, ATCC700603, CAMHB, 35° C., 24 h, duplicate. As to the method:
as §4, §5, §6, §7, §8

Series [22] relates to E. cloacae Lek 14, derepressed (AmpC). In words: Broth microdilution MIC, S2. The series is classed as cell-based. As to conditions: CAMHB, 35° C., 24 h, duplicate. As to the method: as §4, §5, §6, §7, §8
Setting [23] is: in words, compared to tazobactam.

Molecules are shown by their SMILES.

Sequence of class A beta-lactamase SHV-1 (P0AD63 22-286): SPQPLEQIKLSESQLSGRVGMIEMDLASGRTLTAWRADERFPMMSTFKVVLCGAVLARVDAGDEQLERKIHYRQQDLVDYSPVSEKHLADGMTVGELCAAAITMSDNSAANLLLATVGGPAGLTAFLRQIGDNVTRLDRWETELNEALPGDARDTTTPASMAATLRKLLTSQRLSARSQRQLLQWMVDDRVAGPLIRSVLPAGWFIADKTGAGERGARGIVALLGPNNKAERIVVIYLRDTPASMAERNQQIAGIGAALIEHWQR
Sequence of class C beta-lactamase P99 (AmpC) (P05364 21-381): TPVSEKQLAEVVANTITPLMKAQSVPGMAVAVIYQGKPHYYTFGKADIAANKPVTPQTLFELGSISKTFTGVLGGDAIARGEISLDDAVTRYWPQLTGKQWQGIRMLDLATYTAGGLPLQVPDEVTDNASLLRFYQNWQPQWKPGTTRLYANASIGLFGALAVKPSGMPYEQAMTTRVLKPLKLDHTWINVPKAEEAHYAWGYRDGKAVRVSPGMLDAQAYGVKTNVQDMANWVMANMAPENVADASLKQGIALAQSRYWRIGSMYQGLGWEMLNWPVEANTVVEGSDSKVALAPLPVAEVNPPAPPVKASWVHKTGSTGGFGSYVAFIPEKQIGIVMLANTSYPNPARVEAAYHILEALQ
Sequence of class A beta-lactamase TEM-1 (P62593 24-286 limits assumed): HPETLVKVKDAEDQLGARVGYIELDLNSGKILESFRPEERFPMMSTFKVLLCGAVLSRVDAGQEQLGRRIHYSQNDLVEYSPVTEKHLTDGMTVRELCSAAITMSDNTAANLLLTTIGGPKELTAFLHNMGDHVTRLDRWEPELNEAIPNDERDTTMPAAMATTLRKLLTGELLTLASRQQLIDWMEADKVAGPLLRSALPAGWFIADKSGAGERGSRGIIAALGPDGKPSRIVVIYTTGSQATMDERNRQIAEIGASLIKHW

Consider `CO[C@H]1CCC[C@H]2C1=C(C(=O)O)N1C(=O)[C@H]([C@H](O)C(F)(F)F)[C@@H]21` [LK-178, Sodium (4S,8S,9R,10S)-4-methoxy-10-[1-(S)-hydroxy-2,2,2-trifluoroethyl]-11-oxo-azatricyclo[7.2.0.0^3,8]undec-2-ene-2-carboxylate], for which the IC50 (commonly the concentration that inhibits the measured activity by half) was 8400 nM in series [1], 1100 nM in [2] and 419 nM in series [3].

With `CO[C@H]1CCC[C@H]2C1=C(C(=O)[O-])N1C(=O)[C@H]([C@H](O)CF)[C@@H]21.[Na+]` [LK-180, Sodium salt of (4S,8S,9R)-4-methoxy-10-(1-(S)-hydroxy-fluoroethyl)-11-oxo-1-azatricyclo-[7.2.0.0 (3,8)]undec-2-ene-2-carboxylic acid], the minimal inhibitory concentration (MIC) (commonly the lowest concentration that inhibits growth of the organism) in series [4] is 32 µg/mL; in [6], 128 µg/mL; in [7] it was 8 µg/mL; in [8], 8 µg/mL; in series [9], 4 µg/mL; in series [10] it was 8 µg/mL. In addition, the MIC in series [12] amounted to 4 µg/mL; in series [13], 4 µg/mL; in series [14] it was 32 µg/mL; in series [15] (Enterobacter cloacae), 8 µg/mL; in [16] it was 16 µg/mL; in series [17], 16 µg/mL. Further, the MIC is 4 µg/mL in [18], 64 µg/mL in [19], 4 µg/mL in series [20] and 2 µg/mL in [21]. Further, the “antibiotic activity compared to Tazocin®” value in [5] is “superior to Tazocin®”. The IC50 in series [1] was found to be 500 nM; in [2] it was 12 nM; in [3], 0.5 nM. Moreover, the “MIC S9” value in series [11] is 16 µg/mL. Also, the “activity against SHV-1 enzyme as compared to tazobactam” value in [2] (setting [23]) was “highly potentiated activity”. Besides, the “MIC S1” value in series [15] is 4 µg/mL. Further, in series [22], the “MIC S2” value was 4 µg/mL. In series [3] (setting [23]), the “activity against AmpC enzyme as compared to tazobactam” value is “highly potentiated activity”.
